Test results as given in US11549947B2, “Multiplexed detection with isotope-coded reporters” (Massachusetts Institute of Technology, priority 2011, dated 2023).
Blank lines part the entries; values can stand above or below the molecule they belong to.

What was measured:
[1] = design: species or system FVB/NJ mice; conditions: mouse, in vivo, iv
Excerpt: Using this assay, increases in sample fluorescence were observed upon proteolytic cleavage of the tethered fluorescent peptides resulting from abrogation of homoquenching between adjacent fluorophores. Initial reaction velocities were extracted for each protease-substrate combination and compiled for comparative analysis (FIG. 10a,b). FIG. 10 illustrates selecting protease-sensitive substrates for NW-chaperoned urinary trafficking. Kinetics of peptide-NW cleavage monitored by fluorimetry are shown in (a). Specific protease-substrate combinations led to rapid activation. […] IVIS in vivo imaging of DDC treated and control animals following intravenous injection of VivoTag-680 labeled Glu-fib peptides, (d) peptide-free NWs, or (e) peptide-conjugated NWs.

[2] = test system: hepatic fibrosis and resolution in DDC-treated mice; experiment: iCORE LC MS/MS analysis of urinary reporters after i.v. NW cocktail, DDC liver fibrosis model; type: in vivo, FVB/NJ mice; conditions: for individual iCORE peak intensity (DDC over control) relative to pretreatment: DDC-treated mice, NWs administered at 0, 3, 7 and 11 weeks, urine, n=10
Description: (§1) Mice were intravenously infused with 200 μl of PBS containing equimolar NW cocktails (5 μM per peptide) with EDTA-free protease inhibitor tablets (Roche) to isolate MMP activity. Mice were placed over 96-well plates surrounded by cylindrical sleeves for urine collection. To prevent further reporter degradation, voided samples were spiked with EDTA+ complete protease inhibitors (Roche) immediately after collection. To quantify urinary fluorescence, 2 μL of each sample was incubated with magnetic beads (Dynal) coated with α-FITC antibodies (Genetex) in 50 μl binding buffer ([…], 0.01% CHAPS) for 1 hr at 37° C., washed twice with 100 mM NH4OAc, and eluted twice with 15 μl of 5% acetic acid. Samples were neutralized with 2 M Tris and quantified by microplate fluorimetry. For iCORE analysis, samples were irradiated with UV for 30 min. before TCA precipitation (20% final volume) to remove proteins. Soluble fractions were applied to C18 reverse phase columns (Nest Group) and eluted via step gradients of 20% ACN increments in 0.1% formic acid. 60% ACN fractions containing Glu-fib peptides were collected and dried by vacuum centrifuge.
Peptide samples were reconstituted in 5% ACN, 0.1% formic acid and analyzed at MIT or the Taplin MS facility (Harvard Medical School). At MIT, peptides were captured and eluted from a C18 nanoflow HPLC column (75 μm internal diameter Magic C18 AQ, Michrom BioResources, Inc.) at a flow rate of 300 nL/min using water-acetonitrile solvent system with 0.1% formic acid. ESI mass spectrometry was carried out on a QSTAR Elite QTOF mass spectrometer (AB Sciex). At Harvard, samples are reconstituted in 2.5% ACN, 0.1% formic acid. Samples are injected using a Famos autosampler (LC Packings) into an Agilent 1100 HPLC prior to mass analysis on a LTQ-Orbitrap (Thermo Electron). To account for discrepancies in urine volumes and concentration, peak intensities of individual reporters were scaled relative to its respective total iCORE ion current before normalization against control samples to account for technical and age-related variations.
Pearson's correlation coefficients between different protease profiles were calculated with MatLAB. ANOVA analyses were calculated with GraphPad 5.0 (Prism). For ROC analysis, risk score functions were first estimated by logistic regression on individual biomarkers followed by ROC curve analyses of single or biomarker combinations (SigmaPlot).
Thus, to monitor the transitions between fibrosing and resolving disease, NWs were administered at 0, 3, 7, and 11 weeks into DDC-treated and age-matched control animals followed by iCORE MS/MS analysis.
The diagnostic performance of these biomarkers was determined by performing receiver operating characteristic (ROC) analyses for individual as well as biomarker combinations. ROC curves characterize the sensitivity and specificity of a biomarker as a function of the discrimination threshold by returning the area under the curve (AUC) as a performance metric with a baseline AUC of 0.5 representing a random biomarker classifier (dashed line, FIG. 11g,h).

LS174T xenograft tumors [3] = experiment: iCORE MS/MS analysis of urinary reporters after i.v. NW library, colorectal tumor xenograft model; type: in vivo, athymic nude mice; conditions: LS 174T tumor vs control, day 10; n=16 (8 ctrl, 8 tumor)
Description: as §1, with “60% ACN fractions containing Glu-fib peptides were collected and dried by vacuum centrifuge.” left out
Peptide samples were reconstituted in 5% ACN, 0.1% formic acid and analyzed at MIT or the Taplin MS facility (Harvard Medical School). […]
Pearson's correlation coefficients between different protease profiles were calculated with MatLAB. ANOVA analyses were calculated with GraphPad 5.0 (Prism). […]

liver collagen = conditions: mouse, in vivo
Description: In vivo imaging. […] FVB/NJ mice (Jackson Labs) were fed with 0.1% w/w DDC (Sigma) rodent chow for three weeks (Research Diets). Fibrotic and age control animals were i.v. infused with VivoTag-680 labeled reagents and visualized by IVIS imaging (Xenogen).
For in situ zymography, fibrotic sections were covered with 90 μl solution of 0.5% w/v low melt agarose (Sigma) in MMP activation buffer (50 mM Tris, 150 NaCl, 5 mM CaCl2, 0.025% Brij 35, pH 7.5) with 10 μl of DQ-gelation (1 mg/ml, Invitrogen) and Hoechst dye at 37° C. Slides were solidified at 4° C. and then incubated at room temperature overnight to promote gelation proteolysis by tissue proteases. To quantify hepatic collagen, tissue from the right and left lobes (250-300 mg) were hydrolyzed in 5 ml of 6 N HCl at 110° C. for 16 hours followed by hydroxyproline quantification as previously described.^43 To quantify CEA, blood was collected from tumor animals into Capiject microtubes (Terumo) to isolate serum before ELISA analysis (Calbiotech). For immunofluorescence analysis, equimolar NW cocktails (5 μM/peptide) were administered in Fibrotic FVB/NJ or tumor bearing Nude mice. After perfusion, livers or tumors were fixed in 4% PFA, froze for sectioning, and stained for F4/80 (AbD Serotec), MMP-9 (R&D Biosystems), CD31 (Santa Cruz Biotechnologies) and/or FITC (Genetex) before analyzed by fluorescence microscopy (Nikon Eclipse Ti). […]

LS174T xenograft tumors [4] = experiment: Serum CEA by ELISA in tumor animals; type: in vivo, athymic nude mice
Description: To quantify hepatic collagen, tissue from the right and left lobes (250-300 mg) were hydrolyzed in 5 ml of 6 N HCl at 110° C. for 16 hours followed by hydroxyproline quantification as previously described.^43 To quantify CEA, blood was collected from tumor animals into Capiject microtubes (Terumo) to isolate serum before ELISA analysis (Calbiotech).
Here, it was investigated whether panels of synthetic urinary biomarkers could be readily adapted to allow earlier and more accurate detection of cancer compared with single clinical blood biomarkers, e.g., because nanoparticles can be passively targeted to tumors to sample proteases through fenestrated angiogenic tumor vessels.^16. In order to explore this concept, athymic nude mice were used bearing LS174T xenograft tumors, a human colorectal cancer (CRC) cell line^38 that secretes the blood biomarker carcinoembryonic antigen (CEA) as a model system (FIG. 22). […] Following implantation, tumor engraftment was monitored by sampling serum every 3 days and analyzing for CEA by ELISA (FIG. 23b,c). […] Tumors permitted to grow further were readily detected by CEA analysis (day 13 and 16), representing a limit of detection of ˜330 mm3 (d ˜8.6 mm) (**P<0.01, Two way ANOVA, n=5). […] To determine the full diagnostic potential of multiplexed analysis, individual biomarkers were quantified by iCORE MS/MS.

Molecule: EGVNDNEEGFFSAR [Glu-fib, prototypic urinary marker peptide]
liver homing [1]: undetectable
urinary filtration / urinary fluorescence [1]: efficiently filtered into urine

Molecule: e^+3G^+1Vndnee^+1GFfs^+4Ar-X-K(FAM)GGPLGLRSWC-NW [Biomarker G6]
individual iCORE peak intensity (DDC over control) relative to pretreatment [2]: significantly decreasing at week 3

Molecule: e^+2GVndneeG^+6Ffs^+1Ar-X-K(FAM)GGf(Pip)RSGGGC-NW [Biomarker G8]
individual iCORE peak intensity (DDC over control) relative to pretreatment [2]: did not deviate from initial pretreatment activities

Molecule: e^+3G^+6VndneeGFfsAr-X-K(FAM)GGPQGIWGQC-NW [Biomarker G1]
ROC area under the curve (AUC), tumor biomarkers (LS174T xenograft tumors [3]): 0.78
individual iCORE peak intensity (DDC over control) relative to pretreatment [2]: did not deviate from initial pretreatment activities
ROC area under the curve (AUC), resolving biomarkers ([2]; resolving time frame of 7-11 weeks, baseline AUC 0.5): 0.73

drop in liver collagen (liver collagen): ~30%
Molecule: 3,5-diethoxycarbonyl-1,4-dihydrocollidine [DDC]

Molecule: eG^+6Vndnee^+2GFfs^+1Ar-X-K(FAM)GGPWGIWGQGC-NW [Biomarker G4]
individual iCORE peak intensity (DDC over control) relative to pretreatment [2]: strongly increased relative to pretreatment baselines

Molecule: eG^+5VndneeGFfs^+4Ar-X-K(FAM)GGPVPLSLVMC-NW [Biomarker G5]
individual iCORE peak intensity (DDC over control) relative to pretreatment [2]: significantly decreasing at week 3
ROC area under the curve (AUC), fibrosing biomarkers ([2]; fibrosing window of 0-3 weeks, baseline AUC 0.5): 0.96

Molecule: eGVndnee^+3G^+6FfsAr-X-K(FAM)GGf(Pip)KSGGGC-NW [Biomarker G10]
individual iCORE peak intensity (DDC over control) relative to pretreatment [2]: did not deviate from initial pretreatment activities

Molecule: e^+3GVndneeG^+6FfsAr-X-K(FAM)GGPLGVRGKC-NW [Biomarker G7]
individual iCORE peak intensity (DDC over control) relative to pretreatment [2]: elevating sharply at week 3 followed by a rapid reversal at week 7

Molecule: e^+1GVndnee^+2G^+6FfsAr-X-K(FAM)GGfPRSGGGC-NW [Biomarker G9]
individual iCORE peak intensity (DDC over control) relative to pretreatment [2]: did not deviate from initial pretreatment activities

Molecule: e^+1G^+6Vndnee^+2GFfsAr-X-K(FAM)GGPVGLIGC-NW [Biomarker G3]
individual iCORE peak intensity (DDC over control) relative to pretreatment [2]: strongly increased relative to pretreatment baselines

Molecule: e^+2G^+6Vndnee^+1GFfsAr-X-K(FAM)GGLVPRGSGC-NW [Biomarker G2]
individual iCORE peak intensity (DDC over control) relative to pretreatment [2]: did not deviate from initial pretreatment activities

B1: serum CEA: blood biomarker carcinoembryonic antigen secreted by LS174T cells (protein, UniProt P06731 35-685, looked up)
Cell adhesion molecule CEACAM5: KLTIESTPFNVAEGKEVLLLVHNLPQHLFGYSWYKGERVDGNRQIIGYVIGTQQATPGPAYSGREIIYPNASLLIQNIIQNDTGFYTLHVIKSDLVNEEATGQFRVYPELPKPSISSNNSKPVEDKDAVAFTCEPETQDATYLWWVNNQSLPVSPRLQLSNGNRTLTLFNVTRNDTASYKCETQNPVSARRSDSVILNVLYGPDAPTISPLNTSYRSGENLNLSCHAASNPPAQYSWFVNGTFQQSTQELFIPNITVNNSGSYTCQAHNSDTGLNRTTVTTITVYAEPPKPFITSNNSNPVEDEDAVALTCEPEIQNTTYLWWVNNQSLPVSPRLQLSNDNRTLTLLSVTRNDVGPYECGIQNELSVDHSDPVILNVLYGPDDPTISPSYTYYRPGVNLSLSCHAASNPPAQYSWLIDGNIQQHTQELFISNITEKNSGLYTCQANNSASGHSRTTVKTITVSAELPKPSISSNNSKPVEDKDAVAFTCEPEAQNTTYLWWVNGQSLPVSPRLQLSNGNRTLTLFNVTRNDARAYVCGIQNSVSANRSDPVTLDVLYGPDTPIISPPDSSYLSGANLNLSCHSASNPSPQYSWRINGIPQQHTQVLFIAKITPNNNGTYACFVSNLATGRNNSIVKSITVSASGTSPGLSA
ROC area under the curve (AUC), serum CEA (LS174T xenograft tumors [4]; day 10): 0.61
limit of detection (tumor burden) by CEA analysis (LS174T xenograft tumors [4]; day 13 and 16): ~330 mm3
